The source of these data is PubChem BioAssay (NCI).

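Compound exposure: 48 hours, 5 concentrations, 96-well plates. Definition used: TGI = concentration required for complete inhibition of growth.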

Among the test systems are A498 renal; NCI-H522 lung; HCT-15 colon; RPMI-8226 leukemia; NCI-H23 lung; UO-31 renal; KM12 colon; IGROV1 ovarian; SK-MEL-2 melanoma; SK-OV-3 ovarian; SN12C renal; OVCAR-4 ovarian; HOP-92 NSCLC; SW-620 colon; PC-3 prostate; MCF7 breast; MDA-MB-435; NCI/ADR-RES ovarian; BT-549 breast.
What all share (assay): NCI tumour cell line growth inhibition, 48 h

In the case of `CC(C)=CCC/C(C)=C/CC/C(C)=C/CC/C=C(\C)CC/C=C(\C)CCC1SC1(C)C` (centres undefined), the TGI in the assay with A498 renal, in the assay on NCI-H522 lung, with HCT-15 colon, in the assay with RPMI-8226 leukemia, in the assay on NCI-H23 lung and in the assay with UO-31 renal was greater than 100 µM each time. In addition, the TGI in the assay with KM12 colon, in the assay with IGROV1 ovarian, in the assay on SK-MEL-2 melanoma, in the assay on SK-OV-3 ovarian, in the assay on SN12C renal and in the assay on OVCAR-4 ovarian was greater than 100 µM throughout. Also, the TGI in the assay on HOP-92 NSCLC and in the assay with SW-620 colon was greater than 100 µM each time.
Take `c1ccc2c(c1)ccc1ncccc12`: the TGI with A498 renal, with NCI-H522 lung, in the assay on PC-3 prostate, in the assay on HCT-15 colon, in the assay on MCF7 breast and in the assay on MDA-MB-435 was greater than 100 µM each time. Further, the TGI in the assay with RPMI-8226 leukemia, in the assay on NCI-H23 lung, in the assay on UO-31 renal, in the assay with NCI/ADR-RES ovarian, in the assay with KM12 colon and in the assay on IGROV1 ovarian was greater than 100 µM in each case. Further, the TGI with SK-MEL-2 melanoma, in the assay on BT-549 breast, with SN12C renal, in the assay on OVCAR-4 ovarian, in the assay on HOP-92 NSCLC and in the assay with SW-620 colon was greater than 100 µM each time.
In the case of `COc1ccc(N2C(=O)CSC2c2cc3cc(Br)ccc3nc2Cl)cc1` (centres undefined), the TGI in the assay with A498 renal, in the assay with NCI-H522 lung, in the assay with PC-3 prostate, in the assay on HCT-15 colon, in the assay with MCF7 breast and in the assay on MDA-MB-435 was greater than 50 µM throughout. In addition, the TGI in the assay on RPMI-8226 leukemia, in the assay on NCI-H23 lung, in the assay on UO-31 renal, in the assay with NCI/ADR-RES ovarian, with KM12 colon and with IGROV1 ovarian was greater than 50 µM throughout. Further, the TGI in the assay on SK-MEL-2 melanoma, in the assay with SK-OV-3 ovarian, in the assay with BT-549 breast, with SN12C renal, in the assay on OVCAR-4 ovarian and with HOP-92 NSCLC was greater than 50 µM in each case. The same molecule returned a TGI in the assay with SW-620 colon greater than 50 µM.
`COc1nc(/C=N/NC(N)=S)nc(OC)n1`: the TGI with A498 renal, with NCI-H522 lung, in the assay on RPMI-8226 leukemia, in the assay with NCI-H23 lung, in the assay with UO-31 renal and with KM12 colon was greater than 100 µM each time. Further, the TGI with IGROV1 ovarian, in the assay on SK-MEL-2 melanoma, in the assay with SK-OV-3 ovarian, in the assay on SN12C renal, with OVCAR-4 ovarian and in the assay with HOP-92 NSCLC was greater than 100 µM each time. Besides, in the assay on SW-620 colon, the TGI is greater than 100 µM.
With `Cc1ccc(C2(C)NC(=S)N(NC(N)=S)C2=S)cc1` (centres undefined), the TGI with A498 renal, with HCT-15 colon, with RPMI-8226 leukemia, with NCI-H23 lung, in the assay with UO-31 renal and with IGROV1 ovarian was greater than 100 µM in each case. Moreover, the TGI in the assay with SK-MEL-2 melanoma, in the assay with SN12C renal, with OVCAR-4 ovarian and in the assay on SW-620 colon was greater than 100 µM in each case.
With `CC(N)C(=O)c1ccc(O)cc1` (centres undefined), the TGI with A498 renal, with NCI-H522 lung, in the assay with HCT-15 colon, in the assay on RPMI-8226 leukemia, in the assay on NCI-H23 lung and in the assay on UO-31 renal was greater than 100 µM in each case. Moreover, the TGI with KM12 colon, in the assay with IGROV1 ovarian, with SK-MEL-2 melanoma, with SK-OV-3 ovarian, in the assay on SN12C renal and in the assay with OVCAR-4 ovarian was greater than 100 µM in each case. Moreover, the TGI with HOP-92 NSCLC and with SW-620 colon was greater than 100 µM throughout.
Take `Cc1c2ccccc2c(CO)c2cc(F)c3ccccc3c12`: the TGI with A498 renal was greater than 100 µM; in the assay with NCI-H522 lung, 26.3 µM; in the assay on NCI-H23 lung, greater than 100 µM; in the assay with UO-31 renal, greater than 100 µM; in the assay on KM12 colon, 56.3 µM; in the assay with IGROV1 ovarian it was 63.7 µM. The TGI in the assay on SK-MEL-2 melanoma is 36.7 µM; in the assay with SK-OV-3 ovarian, 73.6 µM; in the assay with SN12C renal, 33.3 µM; in the assay with OVCAR-4 ovarian, 98.2 µM; in the assay with HOP-92 NSCLC, 78.4 µM; in the assay with SW-620 colon it was greater than 100 µM.
Take `Cc1c(/C=N/NC(=O)c2ccccc2)c(=O)n(-c2ccccc2)n1C`: the TGI with A498 renal, with NCI-H522 lung, with HCT-15 colon, with RPMI-8226 leukemia, with NCI-H23 lung and in the assay on UO-31 renal was greater than 100 µM in each case. For the same molecule, the TGI in the assay with KM12 colon, in the assay with IGROV1 ovarian, in the assay on SK-MEL-2 melanoma, with SK-OV-3 ovarian, in the assay on SN12C renal and with OVCAR-4 ovarian was greater than 100 µM in each case. Further, the TGI with HOP-92 NSCLC and in the assay on SW-620 colon was greater than 100 µM in each case.
For `Cc1ccc(S(=O)(=O)NC(=O)C2(Br)S(=O)(=O)OCCOS2(=O)=O)cc1`, the TGI with A498 renal, with NCI-H522 lung, in the assay with HCT-15 colon, with RPMI-8226 leukemia, with NCI-H23 lung and in the assay on UO-31 renal was greater than 100 µM throughout. Besides, the TGI with IGROV1 ovarian, in the assay with SK-MEL-2 melanoma, with SK-OV-3 ovarian, in the assay with SN12C renal, in the assay with OVCAR-4 ovarian and in the assay on HOP-92 NSCLC was greater than 100 µM throughout.
`Cc1ccc(S(=O)(=O)c2c(N)c3nccn3c3nc4ccccc4nc23)cc1`: the TGI with NCI-H522 lung, in the assay with HCT-15 colon, with RPMI-8226 leukemia, in the assay on NCI-H23 lung, in the assay with UO-31 renal and in the assay on KM12 colon was greater than 100 µM in each case. The TGI with IGROV1 ovarian, in the assay with SK-MEL-2 melanoma, with SK-OV-3 ovarian, with SN12C renal, with OVCAR-4 ovarian and with HOP-92 NSCLC was greater than 100 µM throughout. Further, in the assay on SW-620 colon, the TGI was greater than 100 µM.
